Test results taken from the CheMixHub viscosity set.

Assay: xn = mol fraction of the nth substance listed

Cc1ccccc1 + CO
Settings | viscosity [mPa·s]
293.15 K, 101 kPa, x1 = 0.0405 | 0.5903
293.15 K, 101 kPa, x1 = 0.0868 | 0.5951
293.15 K, 101 kPa, x1 = 0.1401 | 0.6009
293.15 K, 101 kPa, x1 = 0.2022 | 0.6067
293.15 K, 101 kPa, x1 = 0.2755 | 0.6121
293.15 K, 101 kPa, x1 = 0.3632 | 0.6167
293.15 K, 101 kPa, x1 = 0.4701 | 0.6194
293.15 K, 101 kPa, x1 = 0.6033 | 0.6184
293.15 K, 101 kPa, x1 = 0.7739 | 0.6098
293.15 K, 101 kPa, x2 = 0.2 | 0.582
293.15 K, 101 kPa, x2 = 0.4 | 0.601
293.15 K, 101 kPa, x2 = 0.6 | 0.62
293.15 K, 101 kPa, x2 = 0.8 | 0.623
293.16 K, 101 kPa, x2 = 0.7465 | 0.6073
293.16 K, 101 kPa, x2 = 0.8178 | 0.6149
293.16 K, 101 kPa, x2 = 0.9632 | 0.6049
298.15 K, 101 kPa, x1 = 0.0405 | 0.552
298.15 K, 101 kPa, x1 = 0.0868 | 0.5572
298.15 K, 101 kPa, x1 = 0.1401 | 0.5628
298.15 K, 101 kPa, x1 = 0.2022 | 0.5679
298.15 K, 101 kPa, x1 = 0.2755 | 0.573
298.15 K, 101 kPa, x1 = 0.3632 | 0.5779
298.15 K, 101 kPa, x1 = 0.4701 | 0.5803
298.15 K, 101 kPa, x1 = 0.6033 | 0.5796
298.15 K, 101 kPa, x1 = 0.7739 | 0.5809
298.15 K, 101 kPa, x2 = 0.0499 | 0.551
298.15 K, 101 kPa, x2 = 0.0998 | 0.547
298.15 K, 101 kPa, x2 = 0.1993 | 0.54
298.15 K, 101 kPa, x2 = 0.2269 | 0.5998
298.15 K, 101 kPa, x2 = 0.2998 | 0.541
298.15 K, 101 kPa, x2 = 0.3977 | 0.6168
298.15 K, 101 kPa, x2 = 0.4007 | 0.55
298.15 K, 101 kPa, x2 = 0.4998 | 0.557
298.15 K, 101 kPa, x2 = 0.5309 | 0.6284
298.15 K, 101 kPa, x2 = 0.6002 | 0.562
298.15 K, 101 kPa, x2 = 0.6377 | 0.6259
298.15 K, 101 kPa, x2 = 0.7 | 0.572
298.15 K, 101 kPa, x2 = 0.7252 | 0.6143
298.15 K, 101 kPa, x2 = 0.7983 | 0.599
298.15 K, 101 kPa, x2 = 0.8 | 0.569
298.15 K, 101 kPa, x2 = 0.8606 | 0.5847
298.15 K, 101 kPa, x2 = 0.9 | 0.561
298.15 K, 101 kPa, x2 = 0.9136 | 0.5831
298.15 K, 101 kPa, x2 = 0.9501 | 0.555
298.15 K, 101 kPa, x2 = 0.9597 | 0.5642
298.16 K, 101 kPa, x2 = 0.4032 | 0.5406
298.16 K, 101 kPa, x2 = 0.7442 | 0.5644
298.16 K, 101 kPa, x2 = 0.9625 | 0.5599
303 K, 101 kPa, x1 = 0.1006 | 0.549
303 K, 101 kPa, x1 = 0.2012 | 0.599
303 K, 101 kPa, x1 = 0.3009 | 0.585
303 K, 101 kPa, x1 = 0.3981 | 0.578
303 K, 101 kPa, x1 = 0.5016 | 0.573
303 K, 101 kPa, x1 = 0.6052 | 0.566
303 K, 101 kPa, x1 = 0.7001 | 0.562
303 K, 101 kPa, x1 = 0.8095 | 0.559
303 K, 101 kPa, x1 = 0.9011 | 0.537
303.15 K, 101.33 kPa, x1 = 0.0724 | 0.588
303.15 K, 101.33 kPa, x1 = 0.0912 | 0.531
303.15 K, 101.33 kPa, x1 = 0.1636 | 0.588
303.15 K, 101.33 kPa, x1 = 0.2105 | 0.539
303.15 K, 101.33 kPa, x1 = 0.2773 | 0.542
303.15 K, 101.33 kPa, x1 = 0.3517 | 0.569
303.15 K, 101.33 kPa, x1 = 0.3723 | 0.54
303.15 K, 101.33 kPa, x1 = 0.4963 | 0.529
303.15 K, 101.33 kPa, x1 = 0.5095 | 0.544
303.15 K, 101.33 kPa, x1 = 0.6126 | 0.539
303.15 K, 101.33 kPa, x1 = 0.6944 | 0.515
303.15 K, 101.33 kPa, x1 = 0.7321 | 0.532
303.15 K, 101.33 kPa, x1 = 0.8307 | 0.513
303.15 K, 101.33 kPa, x1 = 0.8541 | 0.527
303.15 K, 101.33 kPa, x1 = 0.888 | 0.516
303.15 K, 101.33 kPa, x1 = 0.9511 | 0.52
308.15 K, 101 kPa, x1 = 0.0405 | 0.4855
308.15 K, 101 kPa, x1 = 0.0868 | 0.4908
308.15 K, 101 kPa, x1 = 0.1401 | 0.4965
308.15 K, 101 kPa, x1 = 0.2022 | 0.5022
308.15 K, 101 kPa, x1 = 0.2755 | 0.5079
308.15 K, 101 kPa, x1 = 0.3632 | 0.5132
308.15 K, 101 kPa, x1 = 0.4701 | 0.517
308.15 K, 101 kPa, x1 = 0.6033 | 0.5188
308.15 K, 101 kPa, x1 = 0.7739 | 0.5021
308.15 K, 101.33 kPa, x1 = 0.0912 | 0.495
308.15 K, 101.33 kPa, x1 = 0.2105 | 0.502
308.15 K, 101.33 kPa, x1 = 0.2773 | 0.504
308.15 K, 101.33 kPa, x1 = 0.3723 | 0.502
308.15 K, 101.33 kPa, x1 = 0.4963 | 0.494
308.15 K, 101.33 kPa, x1 = 0.6944 | 0.482
308.15 K, 101.33 kPa, x1 = 0.8307 | 0.481
308.15 K, 101.33 kPa, x1 = 0.888 | 0.483
308.15 K, 101.33 kPa, x1 = 0.9511 | 0.488
313.15 K, 101.33 kPa, x1 = 0.0724 | 0.5
313.15 K, 101.33 kPa, x1 = 0.1636 | 0.503
313.15 K, 101.33 kPa, x1 = 0.3517 | 0.487
313.15 K, 101.33 kPa, x1 = 0.5095 | 0.485
313.15 K, 101.33 kPa, x1 = 0.6126 | 0.48
313.15 K, 101.33 kPa, x1 = 0.7321 | 0.475
313.15 K, 101.33 kPa, x1 = 0.8541 | 0.464
318.15 K, 101 kPa, x1 = 0.0405 | 0.4298
318.15 K, 101 kPa, x1 = 0.0868 | 0.4372
318.15 K, 101 kPa, x1 = 0.1401 | 0.4452
318.15 K, 101 kPa, x1 = 0.2022 | 0.4538
318.15 K, 101 kPa, x1 = 0.2755 | 0.4629
318.15 K, 101 kPa, x1 = 0.3632 | 0.4726
318.15 K, 101 kPa, x1 = 0.4701 | 0.4817
318.15 K, 101 kPa, x1 = 0.6033 | 0.4892
318.15 K, 101 kPa, x1 = 0.7739 | 0.4809
323.15 K, 101.33 kPa, x1 = 0.0724 | 0.433
323.15 K, 101.33 kPa, x1 = 0.1636 | 0.441
323.15 K, 101.33 kPa, x1 = 0.3517 | 0.407
323.15 K, 101.33 kPa, x1 = 0.5095 | 0.42
323.15 K, 101.33 kPa, x1 = 0.6126 | 0.413
323.15 K, 101.33 kPa, x1 = 0.7321 | 0.41
323.15 K, 101.33 kPa, x1 = 0.8541 | 0.408
